Tests used:
Assay type in all cases: biochemical
GSK3β = molecular target: T1, GSK3β (Homo sapiens, UniProt P49841); test: mobility shift assay
T1 construct: purchased Carna Biosciences

JNK2 = molecular target: T2, JNK2 (Homo sapiens, UniProt P45984); test: mobility shift assay
T2 construct: purchased Carna Biosciences

BRK = molecular target: T3, BRK (Homo sapiens, UniProt Q13882); test: mobility shift assay
T3 construct: purchased Carna Biosciences

EGFR(L861Q) = molecular target: T4, EGFR(L861Q) (Homo sapiens, UniProt P00533, L861Q); test: mobility shift assay
T4 construct: purchased Carna Biosciences

NEK7 = molecular target: T5, NEK7 (Homo sapiens, UniProt Q8TDX7); test: mobility shift assay
T5 construct: purchased Carna Biosciences

CSK = molecular target: T6, CSK (Homo sapiens, UniProt P41240); test: mobility shift assay
T6 construct: purchased Carna Biosciences

PDGFRα(T674I) = molecular target: T7, PDGFRα(T674I) (Homo sapiens, UniProt P16234, T674I); test: mobility shift assay
T7 construct: purchased Carna Biosciences

NDR2 = molecular target: T8, NDR2 (Homo sapiens, UniProt Q9Y2H1); test: mobility shift assay
T8 construct: purchased Carna Biosciences

M88K1 = molecular target: T9, M88K1 (Homo sapiens, UniProt Q9UPE1); test: mobility shift assay
T9 construct: purchased Carna Biosciences

PKCγ = molecular target: T10, PKCγ (Homo sapiens, UniProt P05129); test: mobility shift assay
T10 construct: purchased Carna Biosciences

CK1γ2 = molecular target: T11, CK1γ2 (Homo sapiens, UniProt P78368); test: mobility shift assay
T11 construct: purchased Carna Biosciences

MST3 = molecular target: T12, MST3 (Homo sapiens, UniProt Q9Y6E0); test: mobility shift assay
T12 construct: purchased Carna Biosciences

HPK3 = molecular target: T13, HPK3 (Homo sapiens, UniProt Q9H422); test: mobility shift assay
T13 construct: purchased Carna Biosciences

KIT = molecular target: T14, KIT (Homo sapiens, UniProt P10721); test: mobility shift assay
T14 construct: purchased Carna Biosciences

TNK1 = molecular target: T15, TNK1 (Homo sapiens, UniProt Q13470); test: mobility shift assay
T15 construct: purchased Carna Biosciences

AMPKα1/β1/γ1 = molecular target: T16, AMPKα1/β1/γ1 (Homo sapiens, UniProt Q13131); test: mobility shift assay
T16 construct: purchased Carna Biosciences

NEK2 = molecular target: T17, NEK2 (Homo sapiens, UniProt P51955); test: mobility shift assay
T17 construct: purchased Carna Biosciences

SRPK1 = molecular target: T18, SRPK1 (Homo sapiens, UniProt Q96SB4); test: IMAP Assay
T18 construct: purchased Carna Biosciences

EPHB3 = molecular target: T19, EPHB3 (Homo sapiens, UniProt P54753); test: mobility shift assay
T19 construct: purchased Carna Biosciences

PKCδ = molecular target: T20, PKCδ (Homo sapiens, UniProt Q05655); test: mobility shift assay
T20 construct: purchased Carna Biosciences

PYK2 = molecular target: T21, PYK2 (Homo sapiens, UniProt Q14289); test: mobility shift assay
T21 construct: purchased Carna Biosciences

COT_Cascade = molecular target: T22, COT_Cascade (Homo sapiens, UniProt P41279); test: mobility shift assay
T22 construct: purchased Carna Biosciences

AurB = molecular target: T23, AurB (Homo sapiens, UniProt Q96GD4); test: mobility shift assay
T23 construct: purchased Carna Biosciences

PDGFRα(V561D) = molecular target: T24, PDGFRα(V561D) (Homo sapiens, UniProt P16234, V561D); test: mobility shift assay
T24 construct: purchased Carna Biosciences

HPK4 = molecular target: T25, HPK4 (Homo sapiens, UniProt Q8NE63); test: mobility shift assay
T25 construct: purchased Carna Biosciences

FES = molecular target: T26, FES (Homo sapiens, UniProt P07332); test: mobility shift assay
T26 construct: purchased Carna Biosciences

MARK3 = molecular target: T27, MARK3 (Homo sapiens, UniProt P27448); test: mobility shift assay
T27 construct: purchased Carna Biosciences

KIT(V560G) = molecular target: T28, KIT(V560G) (Homo sapiens, UniProt P10721, V560G); test: mobility shift assay
T28 construct: purchased Carna Biosciences

AKT3 = molecular target: T29, AKT3 (Homo sapiens, UniProt Q9Y243); test: mobility shift assay
T29 construct: purchased Carna Biosciences

FM8 = molecular target: T30, FM8 (Homo sapiens, UniProt P07333); test: mobility shift assay
T30 construct: purchased Carna Biosciences

MLK2_Cascade = molecular target: T31, MLK2_Cascade (Homo sapiens, UniProt Q02779); test: mobility shift assay
T31 construct: purchased Carna Biosciences

DLK_Cascade = molecular target: T32, DLK_Cascade (Homo sapiens, UniProt Q12852); test: mobility shift assay
T32 construct: purchased Carna Biosciences

EPHA4 = molecular target: T33, EPHA4 (Homo sapiens, UniProt P54764); test: mobility shift assay
T33 construct: purchased Carna Biosciences

RET = molecular target: T34, RET (Homo sapiens, UniProt P07949); test: mobility shift assay
T34 construct: purchased Carna Biosciences

BRAF_Cascade = molecular target: T35, BRAF_Cascade (Homo sapiens, UniProt P15056); test: mobility shift assay
T35 construct: purchased Carna Biosciences

EPHA1 = molecular target: T36, EPHA1 (Homo sapiens, UniProt P21709); test: mobility shift assay
T36 construct: purchased Carna Biosciences

LYNa = molecular target: T37, LYNa (Homo sapiens, UniProt P07948); test: mobility shift assay
T37 construct: purchased Carna Biosciences

TRKA = molecular target: T38, TRKA (Homo sapiens, UniProt P04629); test: mobility shift assay
T38 construct: purchased Carna Biosciences

ALK = molecular target: T39, ALK (Homo sapiens, UniProt Q9UM73); test: mobility shift assay
T39 construct: purchased Carna Biosciences

TSSK3 = molecular target: T40, TSSK3 (Homo sapiens, UniProt Q96PN8); test: mobility shift assay
T40 construct: purchased Carna Biosciences

EPHA6 = molecular target: T41, EPHA6 (Homo sapiens, UniProt Q9UF33); test: mobility shift assay
T41 construct: purchased Carna Biosciences

PRKX = molecular target: T42, PRKX (Homo sapiens, UniProt P51817); test: mobility shift assay
T42 construct: purchased Carna Biosciences

T17 sequence (P51955 whole entry): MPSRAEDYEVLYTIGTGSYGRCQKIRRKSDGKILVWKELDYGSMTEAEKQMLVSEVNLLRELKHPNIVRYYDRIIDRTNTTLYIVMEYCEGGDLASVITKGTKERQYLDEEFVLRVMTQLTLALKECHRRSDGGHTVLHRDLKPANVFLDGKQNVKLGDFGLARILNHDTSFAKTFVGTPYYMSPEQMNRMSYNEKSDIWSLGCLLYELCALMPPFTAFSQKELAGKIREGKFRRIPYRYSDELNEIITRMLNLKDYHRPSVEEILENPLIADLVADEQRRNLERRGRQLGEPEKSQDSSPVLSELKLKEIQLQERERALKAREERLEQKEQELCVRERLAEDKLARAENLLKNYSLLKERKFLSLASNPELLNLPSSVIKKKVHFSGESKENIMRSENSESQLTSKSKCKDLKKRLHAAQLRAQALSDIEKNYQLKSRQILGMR
T30 sequence (P07333 20-972): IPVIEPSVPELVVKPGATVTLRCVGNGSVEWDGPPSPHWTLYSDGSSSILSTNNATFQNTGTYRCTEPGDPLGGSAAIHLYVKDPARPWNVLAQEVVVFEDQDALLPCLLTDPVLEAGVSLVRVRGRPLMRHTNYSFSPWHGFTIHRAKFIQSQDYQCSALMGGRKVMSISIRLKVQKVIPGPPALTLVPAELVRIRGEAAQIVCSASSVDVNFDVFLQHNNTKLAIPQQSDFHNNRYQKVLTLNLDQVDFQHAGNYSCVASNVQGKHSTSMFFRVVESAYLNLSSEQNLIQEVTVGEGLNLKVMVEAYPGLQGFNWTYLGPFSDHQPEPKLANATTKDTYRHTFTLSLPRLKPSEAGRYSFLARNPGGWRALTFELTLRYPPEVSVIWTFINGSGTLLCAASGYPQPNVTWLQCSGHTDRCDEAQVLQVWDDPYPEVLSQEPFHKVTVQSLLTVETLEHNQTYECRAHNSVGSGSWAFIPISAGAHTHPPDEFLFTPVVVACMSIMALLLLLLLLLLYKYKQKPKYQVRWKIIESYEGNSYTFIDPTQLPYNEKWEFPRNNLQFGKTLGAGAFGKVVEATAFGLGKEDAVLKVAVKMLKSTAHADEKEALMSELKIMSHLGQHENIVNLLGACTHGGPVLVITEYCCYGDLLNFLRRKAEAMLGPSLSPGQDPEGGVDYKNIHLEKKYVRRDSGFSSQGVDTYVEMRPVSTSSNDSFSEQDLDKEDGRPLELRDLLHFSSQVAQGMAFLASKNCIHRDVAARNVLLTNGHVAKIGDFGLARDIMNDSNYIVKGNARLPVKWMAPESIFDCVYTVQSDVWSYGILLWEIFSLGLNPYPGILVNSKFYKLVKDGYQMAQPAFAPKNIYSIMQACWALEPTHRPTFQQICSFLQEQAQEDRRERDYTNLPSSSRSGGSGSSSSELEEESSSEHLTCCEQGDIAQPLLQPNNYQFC
T23 sequence (Q96GD4 whole entry): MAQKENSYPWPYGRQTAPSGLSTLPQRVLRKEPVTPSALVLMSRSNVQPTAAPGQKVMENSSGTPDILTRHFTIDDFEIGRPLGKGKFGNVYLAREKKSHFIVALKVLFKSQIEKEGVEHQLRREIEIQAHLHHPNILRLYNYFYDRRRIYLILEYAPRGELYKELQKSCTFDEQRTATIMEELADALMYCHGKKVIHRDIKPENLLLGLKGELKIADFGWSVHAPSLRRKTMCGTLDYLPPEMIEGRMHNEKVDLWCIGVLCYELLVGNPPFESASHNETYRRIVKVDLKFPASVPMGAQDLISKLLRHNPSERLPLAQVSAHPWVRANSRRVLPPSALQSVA
T23 sequence (Q9NQS7 803-918 partner limits assumed): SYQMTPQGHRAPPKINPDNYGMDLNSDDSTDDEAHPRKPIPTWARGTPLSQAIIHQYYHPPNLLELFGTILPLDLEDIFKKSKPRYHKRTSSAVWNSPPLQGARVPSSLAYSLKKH
T21 sequence (Q14289 whole entry): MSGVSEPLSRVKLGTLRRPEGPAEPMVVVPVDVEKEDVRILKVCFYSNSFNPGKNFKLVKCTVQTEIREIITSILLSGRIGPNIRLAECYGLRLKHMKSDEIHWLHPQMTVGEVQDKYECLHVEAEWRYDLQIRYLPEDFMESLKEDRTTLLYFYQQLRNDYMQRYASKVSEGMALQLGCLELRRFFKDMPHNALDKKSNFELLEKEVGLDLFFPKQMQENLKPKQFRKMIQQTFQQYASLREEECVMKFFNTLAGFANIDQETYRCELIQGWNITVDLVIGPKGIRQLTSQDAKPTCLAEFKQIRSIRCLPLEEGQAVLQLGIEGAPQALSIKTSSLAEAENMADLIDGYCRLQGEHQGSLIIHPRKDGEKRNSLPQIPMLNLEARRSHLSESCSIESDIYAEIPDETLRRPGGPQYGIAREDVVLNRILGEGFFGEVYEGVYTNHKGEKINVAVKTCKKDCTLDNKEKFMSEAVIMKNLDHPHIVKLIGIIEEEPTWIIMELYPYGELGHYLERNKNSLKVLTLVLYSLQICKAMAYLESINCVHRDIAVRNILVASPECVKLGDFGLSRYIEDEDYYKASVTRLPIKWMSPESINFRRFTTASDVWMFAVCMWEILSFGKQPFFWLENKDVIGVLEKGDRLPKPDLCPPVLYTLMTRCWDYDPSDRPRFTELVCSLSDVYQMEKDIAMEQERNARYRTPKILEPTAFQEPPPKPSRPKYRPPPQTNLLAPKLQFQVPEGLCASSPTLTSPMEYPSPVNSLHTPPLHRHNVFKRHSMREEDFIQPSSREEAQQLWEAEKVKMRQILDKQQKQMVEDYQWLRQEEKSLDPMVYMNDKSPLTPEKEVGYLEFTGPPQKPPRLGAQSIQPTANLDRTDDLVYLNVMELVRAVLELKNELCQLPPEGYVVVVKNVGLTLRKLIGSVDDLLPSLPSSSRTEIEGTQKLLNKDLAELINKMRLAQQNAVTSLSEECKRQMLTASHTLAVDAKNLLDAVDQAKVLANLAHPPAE
T19 sequence (P54753 34-998): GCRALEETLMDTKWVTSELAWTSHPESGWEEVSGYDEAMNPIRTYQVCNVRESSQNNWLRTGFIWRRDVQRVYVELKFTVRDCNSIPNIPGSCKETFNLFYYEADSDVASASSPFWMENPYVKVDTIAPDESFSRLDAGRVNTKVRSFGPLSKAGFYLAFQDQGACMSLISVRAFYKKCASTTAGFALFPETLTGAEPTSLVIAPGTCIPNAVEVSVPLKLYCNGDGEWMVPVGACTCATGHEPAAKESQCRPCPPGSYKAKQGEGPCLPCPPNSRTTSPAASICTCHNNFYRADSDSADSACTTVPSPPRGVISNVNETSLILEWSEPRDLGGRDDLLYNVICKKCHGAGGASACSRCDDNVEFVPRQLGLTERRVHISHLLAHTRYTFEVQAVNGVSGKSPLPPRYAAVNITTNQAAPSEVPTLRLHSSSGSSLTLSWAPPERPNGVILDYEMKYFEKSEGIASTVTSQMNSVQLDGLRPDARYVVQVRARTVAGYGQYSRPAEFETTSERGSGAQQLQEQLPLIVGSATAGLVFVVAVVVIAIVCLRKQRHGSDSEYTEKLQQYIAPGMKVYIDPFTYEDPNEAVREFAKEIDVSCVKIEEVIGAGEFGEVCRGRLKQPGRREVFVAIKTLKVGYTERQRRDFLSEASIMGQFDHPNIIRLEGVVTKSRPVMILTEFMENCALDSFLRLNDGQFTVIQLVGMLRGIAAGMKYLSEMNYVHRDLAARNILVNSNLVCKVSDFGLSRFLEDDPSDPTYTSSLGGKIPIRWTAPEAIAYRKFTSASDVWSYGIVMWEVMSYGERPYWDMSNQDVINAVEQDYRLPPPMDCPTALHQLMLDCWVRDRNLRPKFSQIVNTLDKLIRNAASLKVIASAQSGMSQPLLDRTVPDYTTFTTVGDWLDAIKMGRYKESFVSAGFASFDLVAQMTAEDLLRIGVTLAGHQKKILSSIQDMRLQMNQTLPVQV
T40 sequence (Q96PN8 whole entry): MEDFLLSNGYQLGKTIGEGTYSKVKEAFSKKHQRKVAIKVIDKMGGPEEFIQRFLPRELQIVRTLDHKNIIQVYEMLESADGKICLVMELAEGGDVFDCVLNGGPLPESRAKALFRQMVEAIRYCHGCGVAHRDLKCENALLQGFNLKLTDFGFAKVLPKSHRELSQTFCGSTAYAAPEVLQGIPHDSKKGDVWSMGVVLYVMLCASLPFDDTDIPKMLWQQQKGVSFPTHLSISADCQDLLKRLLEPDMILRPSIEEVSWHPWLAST
T38 sequence (P04629 33-796): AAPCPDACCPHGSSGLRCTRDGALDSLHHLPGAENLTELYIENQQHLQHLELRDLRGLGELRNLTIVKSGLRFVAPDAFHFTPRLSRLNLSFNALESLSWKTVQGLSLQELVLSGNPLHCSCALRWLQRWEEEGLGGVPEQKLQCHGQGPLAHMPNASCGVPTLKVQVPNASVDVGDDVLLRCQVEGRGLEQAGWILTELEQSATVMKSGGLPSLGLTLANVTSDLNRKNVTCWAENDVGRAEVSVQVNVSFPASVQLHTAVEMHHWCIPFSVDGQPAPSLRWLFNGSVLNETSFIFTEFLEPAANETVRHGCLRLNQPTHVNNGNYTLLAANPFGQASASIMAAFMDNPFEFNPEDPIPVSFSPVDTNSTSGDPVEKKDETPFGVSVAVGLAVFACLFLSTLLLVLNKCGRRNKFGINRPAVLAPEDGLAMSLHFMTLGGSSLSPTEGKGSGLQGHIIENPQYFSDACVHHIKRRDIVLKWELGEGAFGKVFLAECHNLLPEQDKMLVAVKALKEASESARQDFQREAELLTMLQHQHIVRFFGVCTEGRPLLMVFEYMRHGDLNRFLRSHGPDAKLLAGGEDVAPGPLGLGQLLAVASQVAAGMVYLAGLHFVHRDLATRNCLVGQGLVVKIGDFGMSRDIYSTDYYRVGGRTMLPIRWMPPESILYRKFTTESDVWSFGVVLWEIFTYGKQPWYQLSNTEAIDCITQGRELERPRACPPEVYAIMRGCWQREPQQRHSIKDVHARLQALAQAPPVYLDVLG

C[C@@H]1CC[C@H]2C(C)(C)CCC[C@]2(C)c2c1oc1c(C=O)c(O)c(O)cc21 [LG-1, liphagal]
inhibition at 10 µM (GSK3β): 25.3%
inhibition at 10 µM (JNK2): 10.7%
inhibition at 10 µM (BRK): 52.5%
inhibition at 10 µM (EGFR(L861Q)): 1.5%
inhibition at 10 µM (NEK7): 24.4%
inhibition at 10 µM (CSK): 7.2%
inhibition at 10 µM (PDGFRα(T674I)): 29.2%
inhibition at 10 µM (NDR2): -4.9%
inhibition at 10 µM (M88K1): 9.3%
inhibition at 10 µM (PKCγ): -1.9%
inhibition at 10 µM (CK1γ2): -2.8%
inhibition at 10 µM (MST3): 62.7%
inhibition at 10 µM (HPK3): 20.5%
inhibition at 10 µM (KIT): 6%
inhibition at 10 µM (TNK1): 5.1%
inhibition at 10 µM (AMPKα1/β1/γ1): 19.9%
inhibition at 10 µM (NEK2): 3.5%
inhibition at 10 µM (SRPK1): 28.2%
inhibition at 10 µM (EPHB3): 1.7%
inhibition at 10 µM (PKCδ): 1.6%
inhibition at 10 µM (PYK2): 21.6%
inhibition at 10 µM (COT_Cascade): 14.7%
inhibition at 10 µM (AurB): 12.1%
inhibition at 10 µM (PDGFRα(V561D)): 7.1%
inhibition at 10 µM (HPK4): 18.2%
inhibition at 10 µM (FES): 23.4%
inhibition at 10 µM (MARK3): -2.9%
inhibition at 10 µM (KIT(V560G)): 17.9%
inhibition at 10 µM (AKT3): 3.3%
inhibition at 10 µM (FM8): 12.5%
inhibition at 10 µM (MLK2_Cascade): 8.3%
inhibition at 10 µM (DLK_Cascade): 13.9%
inhibition at 10 µM (EPHA4): 2%
inhibition at 10 µM (RET): 10.6%
inhibition at 10 µM (BRAF_Cascade): 15%
inhibition at 10 µM (EPHA1): 0.5%
inhibition at 10 µM (LYNa): 7.6%
inhibition at 10 µM (TRKA): 36.4%
inhibition at 10 µM (ALK): 9%
inhibition at 10 µM (TSSK3): 85.6%
inhibition at 10 µM (EPHA6): 23%
inhibition at 10 µM (PRKX): 20%

— patent publication US11691980B2, “Liphagal analog and multi-targeted kinase inhibitor containing liphagal or analog thereof” (TOHOKU UNIVERSITY, priority 2017, dated 2023)
